What all share (format): cell-based
Assay [1] has as its system Jurkat CD3ζ-signaling reporter line. Kind of assay: CAR signaling (tdTomato) in Jurkat CD3ζ-signaling reporter line. The following applies: for CAR signaling, tdTomato intensity, drug switch: grazoprevir at time zero, washed and danoprevir at 48 hours, tracked additional 72 hours. How it is done:
(§1) For IncuCyte analysis of CD3ζ-signaling tdTomato reporter line with CARs and DNCR2-casp-9 kill switch (with EGFP transduction maker), 5e4 CAR+ cells were plated per well in poly-D-Lys coated plate in which 5e4 Jeko1 cells were previously seeded. Drug (e.g., grazoprevir, danoprevir) was added to given final concentration and cells were imaged for tdTomato and EGFP signal at 20×, 800 msec exposure, 4 images/well, every 3 hours. Cells were removed from the Incucyte plate to a v-bottom plate for 2 washes in PBS at 48 hours when the drug condition was changed.
(§2) Coculture for flow analysis of the CAR/kill switch constructs was setup 24 hours before analysis. CAR-positive cells (le5 cells; part I and part II positive, i.e., ROR1+ and EGFRt+ (part II marker)) were mixed with le5 Jeko1 cells and drug. Cells were analyzed for ROR1, EGFRt ([…]), tdTomato, EGFP, and viability as described hereinbelow.
(§3) To evaluate the use of two drug inputs to control two different signaling outputs, we used a Jurkat cell CD3ζ-signaling reporter line expressing the red fluorescent protein tdTomato to track CAR signaling, and the loss of the transduction marker (EGFP) of the DNCR2-caspase-9 construct to track Jurkat cell death.
(§4) We tested the ability to switch between CAR signaling and induction of apoptosis over time in an IncuCyte assay. Briefly, the CD3ζ-signaling reporter line expressing the dual-function GNCR1-CAR/DNCR2-casp9 was mixed 1:1 with Jeko1 cells and treated with 500 nM grazoprevir or danoprevir, or DMSO. Over a period of 48 hours, CAR signaling was tracked by tdTomato intensity and drug-induced cell death (i.e., activation of the safety switch) was monitored by tracking the transduction marker EGFP intensity.
(§5) We then tested the ability to switch from induction of CAR signaling with grazoprevir to induction of apoptosis with danoprevir. Briefly, CAR signaling was activated by grazoprevir treatment at time zero. After 48 hours, the cells were washed and treated with danoprevir. CAR signaling (tdTomato intensity) and cell viability (EGFP intensity) were tracked over an additional 72-hour period.

A further assay relates to Jurkat cells. Kind of assay: Kill switch percent killing in Jurkat cells (flow cytometry). Conditions: for percent killing, miniaturized DNCR2 designs fused to caspase-9 with homo-oligomerized NS3a scaffolds: 500 nM danoprevir, co-expressed with CAR-NS3a, CAR-NS3a-NS3a or dimer-NS3a. How it is done:
Kill switch-positive cells (le5) were incubated for 24-48 hours with inducer drug before staining and analysis for death. Conditions were normalized to contain about 50% transduction positive (+) cells by adding untransduced Jurkat or primary T cells in order to get accurate statistics on death.
Flow cytometry was performed on a Ze5 cytometer (Biorad). To determine expression of markers, between 1×10^5-2×10^5 total cells were transferred to a U-bottom 96 well culture dish (Corning). Cells were washed twice with Cell Staining Buffer (BioLegend), then stained with Zombie Violet (1:1000, BioLegend) and ROR1-FC for ROR1-specific CAR constructs (20 min at room temperature). Cells were washed twice in Cell Staining Buffer, then stained with Annexin V-PE (BD) in 1× Annexin V Binding Buffer (BD) for 15 min at room temperature. After staining, cells were washed once with Annexin V Binding Buffer, resuspended in AnneinV Binding Buffer and immediately analyzed.
Flow cytometry data was analyzed using FlowJo 10 (Tree Star). Percent killing was calculated by gating on live cells, then calculating 100*((percent GFP positive DMSO condition)−(percent GFP positive drug condition))/(percent GFP positive DMSO condition).
We first tested for drug-induced death of Jurkat cells by fusing NS3a and DNCR2 separately to the catalytic domain of caspase-9 (NCDC). The small molecule inducible homodimer FKBP-F36V (iCasp9), which is dimerized by AP1903 (rimiducid) and the inducible heterodimer FKBP/rapamycin/FRB dimer (rapaCasp9) were used as controls. Briefly, Jurkat cells expressing NCDC, iCasp9, or rapaCasp9 were exposed to danoprevir, rimiducid or rapamycin, respectively, for 24 hours and analyzed by flow cytometry with gating set to measure killing in the top about 10% of cells expressing the highest amount of the GFP kill switch transduction marker.
To evaluate the kill switch designs of FIG. 8A, constructs were expressed in Jurkat cells, treated with 500 nM danoprevir (DNCR2-casp-9) or 500 nM grazoprevir (GNCR1-casp-9) and cell death measured by percent killing as described herein above.
The miniaturized versions of DNCR2, D1 and D9, were fused to caspase-9 and co-expressed in Jurkat cells with homo-oligomerized NS3a scaffolds. We also evaluated a CAR construct that included an additional copy of NS3a (CAR-2×NS3a). The original DNCR2-casp-9 was used as a control. Jurkat cells expressing different DNCR2 variants fused to caspase-9 along with CAR-NS3a, CAR-NS3a-NS3a, or dimer-NS3a were treated with 500 nM danoprevir and cell death was measured by percent killing as described herein above.
We explored the ability of other human killing domains to induce cell death in Jurkat and primary human T cells. We fused FKBP-F36V to a panel of killing domains that included caspase-9 D330A, caspase-9, caspase-1, caspase-4, and the necroptosis-inducing protein RIPK3. Briefly, Jurkat and primary human CD4+/CD8+ T cells expressing FKBP(F36V)-fused killing domains were treated with 10 nM rimiducid and cell death was measured by percent killing as described herein above.

The test system of assay [2] is Jurkat CD3ζ-signaling reporter line. Kind of assay: Drug-induced cell death (loss of EGFP transduction marker) in Jurkat CD3ζ-signaling reporter line. The protocol:
as §1, §2
Percent killing was calculated by gating on live cells, then calculating 100*((percent GFP positive DMSO condition)−(percent GFP positive drug condition))/(percent GFP positive DMSO condition).
as §3, §4, §5

[3] abbreviates: IncuCyte, over 48 hours, GNCR1-CAR/DNCR2-casp9 cells 1:1 with Jeko1, 500 nM drug.

Turning to `CC(C)(C)OC(=O)N[C@H]1CCCCC/C=C\[C@@H]2C[C@@]2(C(=O)NS(=O)(=O)C2CC2)NC(=O)[C@@H]2C[C@@H](OC(=O)N3Cc4cccc(F)c4C3)CN2C1=O` [danoprevir, (2R,6S,12Z,13aS,14aR,16aS)-14a-[(Cyclopropylsulfonyl)carbamoyl]-6-({[(2-methyl-2-propanyl)oxy]carbonyl}amino)-5,16-dioxo-1,2,3,5,6,7,8,9,10,11,13a,14,14a,15,16,16a-hexadecahydrocyclopropa[e]pyrrolo[1,2-a][1,4]diazacyclopentadecin-2-yl 4-fluoro-1,3-dihydro-2H-isoindole-2-carboxylate], the “CAR signaling, tdTomato intensity, drug switch” value in assay [1] is “declines”. Further, the “percent killing, two-chain direct dimerization design NCDC” value with Jurkat cells (NS3a-casp-9/DNCR2-casp-9 (NCDC), drug titration, 24 hours, top about 10% GFP-expressing Jurkat cells) is given as “modest killing”. In assay [2] (500 nM drug), the “effect on Jurkat cells expressing a conventional CAR with DNCR2-casp-9” value is reported as “no effect”. For the same molecule, the “percent killing (safety-switch)” value in assay [2] (GNCR1-CAR/DNCR2-casp-9 system, 500 nM drug, loss of EGFP-positive population relative to DMSO) is given as “triggered”. Further, the “cell viability, EGFP intensity” value in assay [2] (setting [3]) is listed as “decreased cell viability”. Moreover, the “cell viability, EGFP signal, drug switch” value in assay [2] (danoprevir added at 48 hours, with or without previous grazoprevir treatment) is on record as “began to drop”.

As to `C=C[C@@H]1C[C@]1(NC(=O)[C@@H]1C[C@@H]2CN1C(=O)[C@H](C(C)(C)C)NC(=O)O[C@@H]1C[C@H]1CCCCCc1nc3ccc(OC)cc3nc1O2)C(=O)NS(=O)(=O)C1CC1.O` [grazoprevir], the “CAR signaling, tdTomato intensity” value in assay [1] (setting [3]) was “only activated”. Moreover, the “CAR signaling, tdTomato gMFI” value in assay [1] (dual-function GNCR1-CAR/DNCR2-casp-9, 500 nM drug, flow cytometry) is “activated”. For the same molecule, the “CAR signaling, tdTomato intensity, drug switch” value in assay [1] was “increases”. Moreover, the “effect on Jurkat cells expressing a conventional CAR with DNCR2-casp-9” value in assay [2] (500 nM drug) was “no effect”.

B1: D1: minimized version of DNCR2 fused to caspase-9 (protein)
chain: MDDNEAEKLIREAEEAAKDAEEAAERTGDPEVRELARELVRLAKEAAEEVQRNPSSSDVNEALHSIVYAIEAAIFALEAAERTGDPEVRELARELVRLAVEAAEEVQRNPSSRNVEHALMRIVLAIYLAEENLRESGSASGSGGFGDVGALESLRGNADLAYILSMEPCGHCLIINNVNFCRESGLRTRTGSNIDCEKLRRRFSSLHFMVEVKGDLTAKKMVLALLELAQQDHGALDCCVVVILSHGCQASHLQFPGAVYGTDGCPVSVEKIVNIFNGTSCPSLGGKPKLFFIQACGGEQKDHGFEVASTSPEDESPGSNPEPDATPFQEGLRTFDQLAAISSLPTPSDIFVSYSTFPGFVSWRDPKSGSWYVETLDDIFEQWAHSEDLQSLLLRVANAVSVKGIYKQMPGCFNFLRKKLFFKTS
For the molecule B1, the “percent killing, miniaturized DNCR2 designs fused to caspase-9 with homo-oligomerized NS3a scaffolds” value with Jurkat cells is recorded as “comparable Jurkat death as the original DNCR2-casp-9”.

B2: CAR-2×NS3a: CAR construct that included an additional copy of NS3a (protein)
chain: CPPCPMFWVLVVVGGVLACYSLLVTVAFIIFWVKRGRKKLLYIFKQPFMRPVQTTQEEDGCSCRFPEEEEGGCELASGSASGSASMKKKGSVVIVGRINLSGDTAYSQQTRGLEGCQETSQTGRDKNQVEGEVQVVSTATQSFLATSINGVLWTVYHGAGTRTIASPKGPVTQMYTNVDKDLVGWQAPQGSRSLTPCTCGSSDLYLVTRHADVIPVRRRGDSRGSLLSPRPISYLKGSAGGPLLCPAGHAVGIFRAAVSTRGVAKAVDFIPVESLETTMRSPGSSGSSGSSGGKKKGSVVIVGRINLSGDTAYSQQTRGLEGCQETSQTGRDKNQVEGEVQVVSTATQSFLATSINGVLWTVYHGAGTRTIASPKGPVTQMYTNVDKDLVGWQAPQGSRSLTPCTCGSSDLYLVTRHADVIPVRRRGDSRGSLLSPRPISYLKGSAGGPLLCPAGHAVGIFRAAVSTRGVAKAVDFIPVESLETTMRSP
On to B2, for which the “percent killing, miniaturized DNCR2 designs fused to caspase-9 with homo-oligomerized NS3a scaffolds” value in the assay with Jurkat cells is “increased killing further”.

B3: D9: minimized version of DNCR2 fused to caspase-9 (protein)
chain: MELEEVLKDLEEALERLRNEELRRLIEEIAELLRRRDDHSIIYMIEALIFVIEAVERTGDERIEKLLEELIKRIRNGDDDSAIMRIVLAVYLIEENLRESGSASGSGGFGDVGALESLRGNADLAYILSMEPCGHCLIINNVNFCRESGLRTRTGSNIDCEKLRRRFSSLHFMVEVKGDLTAKKMVLALLELAQQDHGALDCCVVVILSHGCQASHLQFPGAVYGTDGCPVSVEKIVNIFNGTSCPSLGGKPKLFFIQACGGEQKDHGFEVASTSPEDESPGSNPEPDATPFQEGLRTFDQLAAISSLPTPSDIFVSYSTFPGFVSWRDPKSGSWYVETLDDIFEQWAHSEDLQSLLLRVANAVSVKGIYKQMPGCFNFLRKKLFFKTS
In the case of B3, in the assay with Jurkat cells, the “percent killing, miniaturized DNCR2 designs fused to caspase-9 with homo-oligomerized NS3a scaffolds” value is “comparable Jurkat death as the original DNCR2-casp-9”.

Values taken from patent US20250268938A1, “SMALL MOLECULE-REGULATED CELL SIGNALING EXPRESSION SYSTEM” (Outpace Bio, Inc., priority 2021, published 2025).
